From patent US20190159450A1, “PYRIDINE-BASED COMPOUND INCLUDING ISOXAZOLINE RING AND USE THEREOF AS HERBICIDE” (MOGHU RESEARCH CENTER LTD., priority 2016, published 2019) come the findings set out here.

The structures appear in SMILES notation.

What all share (format): in vivo
Data set [1] has as its system maize. Put plainly: Herbicidal activity test, pre-weeds emergence treatment (crop damage). Conditions: assessed 2 to 3 weeks after spraying, scale 0-10 (0: no effect, 10: complete death). Here is the method: (§1) A rectangular plastic pot with a surface area of 300 cm^2 was filled with sandy loam soil and mixed soil at a ratio of 1:1, and four kinds of weeds including Quamoclit pennata, Abutilon theophrasti Medicus, and Aeschynomene indica, Xanthium strumarium were sown therein. In another pot made in the same way, three kinds of crop seeds including maize, wheat, and rice were sown. The pots were watered and one day later, a medicament was sprayed thereon. The spraying was performed by using a track sprayer (R&D Sprayer, USA) equipped with Teejet 8002EVS (Spraying Systems Co., USA) nozzle, and the spray amount was controlled to be 1000 L/ha. A spray solution was prepared by dissolving the compound of each example or a control material in acetone, and then, adding the same amount of 0.1% (v/v) tween 20 aqueous solution thereto. The spray amount was 200 g/ha. The pots were placed in a greenhouse in which the temperature was maintained at 25° C. to 30° C. during the day and 15° C. to 25° C. during the night, and was regularly watered. After 2 to 3 weeks from the spraying of the compounds or the control material, the efficacy and the damages on each weed and each crop were assessed according to the scale of 0-10 (0: no effect, 10: complete death) scale and the results are shown in Table 3 below.
(§2) Pots for crops and weeds were prepared in the same manner as the test method illustrated in Table 3, and three kinds of weeds selected from Quamoclit pennata, Abutilon theophrasti Medicus, and Aeschynomene indica, Xanthium strumarium were used.

The subject of data set [2] is rice. Described as above. The conditions noted are these: assessed 2 to 3 weeks after spraying, scale 0-10 (0: no effect, 10: complete death). Here is the method: as §1, §2
Data set [3] deals with wheat. Described as above. The conditions noted are these: assessed 2 to 3 weeks after spraying, scale 0-10 (0: no effect, 10: complete death). On the procedure:
as §1, §2

The test system of data set [4] is Abutilon theophrasti Medicus. Put plainly: Herbicidal activity test, pre-weeds emergence treatment. The conditions noted are these: assessed 2 to 3 weeks after spraying, scale 0-10 (0: no effect, 10: complete death). Here is the method: as §1, §2
Data set [5] relates to Aeschynomene indica. The description is as above. The conditions noted are these: assessed 2 to 3 weeks after spraying, scale 0-10 (0: no effect, 10: complete death). Here is the method:
as §1, §2

Data set [6] has as its system Quamoclit pennata. Described as above. Conditions: assessed 2 to 3 weeks after spraying, scale 0-10 (0: no effect, 10: complete death). On the procedure:
as §1, §2

Data set [7] concerns Xanthium strumarium. Described as above. Conditions: assessed 2 to 3 weeks after spraying, scale 0-10 (0: no effect, 10: complete death). On the procedure: as §1, §2
The subject of data set [8] is maize. Put plainly: Herbicidal activity test, post-weeds emergence treatment (crop damage). Conditions: assessed after 2 to 3 weeks, 0: no effect, 10: complete death. Here is the method: as §1
(§3) Pots for crops and weeds were prepared in the same manner as in Experimental Example 1, and then, when the crops and the weeds were raised up to 2 weeks roughly on a third-leaf stage, the compounds and the control material were sprayed thereon in the same manner as described above. The spray amount was 200 g/ha. After 2 to 3 weeks from the spraying of the test substance or the control substance, the efficacy and the damages on each weed and each crop were assessed according to the scale of 0-10 (0: no effect, 10: complete death) scale.
(§4) Pots for crops and weeds were prepared in the same manner as the test method illustrated in Table 5, and four kinds of weeds selected from Quamoclit pennata, Abutilon theophrasti Medicus, and Aeschynomene indica, Xanthium strumarium were used. The spray amount was 200 g/ha for crops and 50 g/ha for weeds.

Data set [9] concerns rice. Described as above. The conditions noted are these: assessed after 2 to 3 weeks, 0: no effect, 10: complete death. Here is the method: as §1, §3, §4
The subject of data set [10] is wheat. The data set is described as above. Conditions: assessed after 2 to 3 weeks, 0: no effect, 10: complete death. Here is the method: as §1, §3, §4
The test system of data set [11] is Abutilon theophrasti Medicus. Description: Herbicidal activity test, post-weeds emergence treatment. Conditions: assessed after 2 to 3 weeks, 0: no effect, 10: complete death. Here is the method: as §1, §3, §4
For data set [12], the system named is Aeschynomene indica. The description is as above. Conditions: assessed after 2 to 3 weeks, 0: no effect, 10: complete death. On the procedure:
as §1, §3, §4

The test system of data set [13] is Quamoclit pennata. The data set is described as above. Conditions: assessed after 2 to 3 weeks, 0: no effect, 10: complete death. Here is the method:
as §1, §3, §4

For data set [14], the system named is Xanthium strumarium. The description is as above. The conditions noted are these: assessed after 2 to 3 weeks, 0: no effect, 10: complete death. On the procedure: as §1, §3, §4
Where [15] appears, read: spray amount 200 g/ha for crops, Table 6.
Setting [16] is: spray amount 50 g/ha for weeds, Table 6.

With `COc1ccc(COC(=O)c2nc(C3CC(Br)=NO3)cc(N)c2Cl)cc1` (stereo not drawn) [Compound 89, 4-methoxybenzyl 4-amino-6-(3-bromo-4,5-dihydroisoxazol-5-yl)-3-chloropicolinate], the “PRE ZEAMX (maize), damage score” value in data set [1] (Table 4, 200 g/ha) was 0. For the same compound, the “PRE ORYSA (rice), damage score” value in data set [2] (Table 4, 200 g/ha) turned out to be 0. The “PRE TRZAW (wheat), damage score” value in data set [3] (Table 4, 200 g/ha) is 0. For the same compound, the “PRE ABUTH (Abutilon theophrasti Medicus), efficacy score” value (from here on “PRE ABUTH”) in [4] (Table 4, 200 g/ha) is 8. The “PRE AESIN (Aeschynomene indica), efficacy score” value (“PRE AESIN (Aeschynomene indica)” below) in data set [5] (Table 4, 200 g/ha) is recorded as 10. Moreover, the “PRE IPOAN (Quamoclit pennata), efficacy score” value (shortened to “PRE IPOAN (Quamoclit pennata)”) in data set [6] (Table 4, 200 g/ha) was 8. In addition, the “PRE XANST (Xanthium strumarium), efficacy score” value (shortened to “PRE XANST (Xanthium strumarium)”) in [7] (Table 4, 200 g/ha) is recorded as 10. Also, in [8] (setting [15]), the “ZEAMX (maize) damage, scale of 0-10” value stood at 0. Further, in [9] (setting [15]), the “ORYSA (rice) damage, scale of 0-10” value is on record as 0. The “TRZAW (wheat) damage, scale of 0-10” value in data set [10] (setting [15]) is given as 0. In addition, the “ABUTH (Abutilon theophrasti Medicus) herbicidal efficacy, scale of 0-10” value (“ABUTH … of 0-10” for short) in data set [11] (setting [16]) came out at 6. Also, the “AESIN (Aeschynomene indica) herbicidal efficacy, scale of 0-10” value (“AESIN … of 0-10” below) in [12] (setting [16]) is listed as 8. The “IPOAN (Quamoclit pennata) herbicidal efficacy, scale of 0-10” value (“IPOAN … of 0-10” for short) in data set [13] (setting [16]) amounted to 5. Moreover, in data set [14] (setting [16]), the “XANST (Xanthium strumarium) herbicidal efficacy, scale of 0-10” value (from here on “XANST … of 0-10”) came to 9.

On to `Nc1cc(C2CC(Cl)=NO2)nc(C(=O)O)c1Cl` (stereo not drawn) [Compound 38, 4-amino-3-chloro-6-(3-chloro-4,5-dihydroisoxazol-5-yl)picolinic acid], for which the “PRE ZEAMX (maize), damage score” value in [1] (Table 3, 200 g/ha) is reported as 0. Further, the “PRE ORYSA (rice), damage score” value in [2] (Table 3, 200 g/ha) was 7. Further, the “PRE TRZAW (wheat), damage score” value in [3] (Table 3, 200 g/ha) is 2. The “PRE ABUTH” value in [4] (Table 3, 200 g/ha) came out at 10. In addition, in data set [5] (Table 3, 200 g/ha), the “PRE AESIN (Aeschynomene indica)” value was determined as 10. In addition, the “PRE IPOAN (Quamoclit pennata)” value in data set [6] (Table 3, 200 g/ha) turned out to be 10. The “PRE XANST (Xanthium strumarium)” value in data set [7] (Table 3, 200 g/ha) is 10. Further, the “ZEAMX (maize) damage, scale of 0-10” value in data set [8] (spray amount 200 g/ha, Table 5) was 1. The “ORYSA (rice) damage, scale of 0-10” value in data set [9] (spray amount 200 g/ha, Table 5) is on record as 3. Besides, the “TRZAW (wheat) damage, scale of 0-10” value in data set [10] (spray amount 200 g/ha, Table 5) came out at 0. Besides, in data set [11] (spray amount 200 g/ha, Table 5), the “ABUTH … of 0-10” value came to 10. Further, in data set [12] (spray amount 200 g/ha, Table 5), the “AESIN … of 0-10” value was found to be 10. The “IPOAN … of 0-10” value in data set [13] (spray amount 200 g/ha, Table 5) came to 9. In addition, in data set [14] (spray amount 200 g/ha, Table 5), the “XANST … of 0-10” value is on record as 10.

Consider `CC(C)OC(=O)c1nc(C2CC(Br)=NO2)cc(N)c1Cl` (stereo not drawn) [Compound 83, isopropyl 4-amino-6-(3-bromo-4,5-dihydroisoxazol-5-yl)-3-chloropicolinate], for which the “PRE ZEAMX (maize), damage score” value in data set [1] (Table 4, 200 g/ha) came to 0. Moreover, the “PRE ORYSA (rice), damage score” value in data set [2] (Table 4, 200 g/ha) was determined as 0. The “PRE TRZAW (wheat), damage score” value in [3] (Table 4, 200 g/ha) came to 0. Further, the “PRE ABUTH” value in data set [4] (Table 4, 200 g/ha) was 0. The “PRE AESIN (Aeschynomene indica)” value in [5] (Table 4, 200 g/ha) came out at 5. Further, in data set [6] (Table 4, 200 g/ha), the “PRE IPOAN (Quamoclit pennata)” value is given as 5. In addition, the “PRE XANST (Xanthium strumarium)” value in data set [7] (Table 4, 200 g/ha) was 2. Further, the “ZEAMX (maize) damage, scale of 0-10” value in [8] (setting [15]) was 0. The “ORYSA (rice) damage, scale of 0-10” value in data set [9] (setting [15]) amounted to 0. The “TRZAW (wheat) damage, scale of 0-10” value in data set [10] (setting [15]) was 0. In [11] (setting [16]), the “ABUTH … of 0-10” value turned out to be 4. In addition, the “AESIN … of 0-10” value in data set [12] (setting [16]) came out at 5. In addition, the “IPOAN … of 0-10” value in data set [13] (setting [16]) is 5. The “XANST … of 0-10” value in data set [14] (setting [16]) amounted to 7.
